Assay results taken from patent publication US20260034112A1, “MULTI-CYCLIC IRAK1 AND IRAK4 INHIBITING COMPOUNDS AND USES THEREOF” (CHILDREN'S HOSPITAL MEDICAL CENTER, priority 2022, published 2026).
In brackets after ≈: the same amount, converted by molar mass. Several values for one entry are separate records, joined by “and”; a condition that tells them apart may be missing. Equal values may be shown once.

Assays:
[1] = target: T1, IRAK4 (Homo sapiens, UniProt Q9NWZ3); assay: Reaction Biology Kinase Assay service, kinase inhibition (IC50); format: biochemical; conditions: functional biochemical assay; read-out: IRAK4 IC50
T1 construct: purchased Reaction Biology (contract assay service)
T1 sequence (Q9NWZ3 1-460): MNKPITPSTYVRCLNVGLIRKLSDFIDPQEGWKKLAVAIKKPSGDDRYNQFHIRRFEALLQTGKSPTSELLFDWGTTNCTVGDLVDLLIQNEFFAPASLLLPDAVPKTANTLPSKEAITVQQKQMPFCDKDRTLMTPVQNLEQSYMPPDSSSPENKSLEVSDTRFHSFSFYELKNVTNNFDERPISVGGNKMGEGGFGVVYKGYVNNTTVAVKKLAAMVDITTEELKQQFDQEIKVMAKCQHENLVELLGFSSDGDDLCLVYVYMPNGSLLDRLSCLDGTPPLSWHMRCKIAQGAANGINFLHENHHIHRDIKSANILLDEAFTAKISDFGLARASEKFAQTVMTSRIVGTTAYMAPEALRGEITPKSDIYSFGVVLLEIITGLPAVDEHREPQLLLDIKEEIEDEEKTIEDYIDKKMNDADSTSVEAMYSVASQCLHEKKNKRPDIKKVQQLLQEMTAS

[2] = target: T2, IRAK1 (Homo sapiens, UniProt P51617); assay: as above; format: biochemical
T2 construct: purchased Reaction Biology (contract assay service)
T2 sequence (P51617 whole entry): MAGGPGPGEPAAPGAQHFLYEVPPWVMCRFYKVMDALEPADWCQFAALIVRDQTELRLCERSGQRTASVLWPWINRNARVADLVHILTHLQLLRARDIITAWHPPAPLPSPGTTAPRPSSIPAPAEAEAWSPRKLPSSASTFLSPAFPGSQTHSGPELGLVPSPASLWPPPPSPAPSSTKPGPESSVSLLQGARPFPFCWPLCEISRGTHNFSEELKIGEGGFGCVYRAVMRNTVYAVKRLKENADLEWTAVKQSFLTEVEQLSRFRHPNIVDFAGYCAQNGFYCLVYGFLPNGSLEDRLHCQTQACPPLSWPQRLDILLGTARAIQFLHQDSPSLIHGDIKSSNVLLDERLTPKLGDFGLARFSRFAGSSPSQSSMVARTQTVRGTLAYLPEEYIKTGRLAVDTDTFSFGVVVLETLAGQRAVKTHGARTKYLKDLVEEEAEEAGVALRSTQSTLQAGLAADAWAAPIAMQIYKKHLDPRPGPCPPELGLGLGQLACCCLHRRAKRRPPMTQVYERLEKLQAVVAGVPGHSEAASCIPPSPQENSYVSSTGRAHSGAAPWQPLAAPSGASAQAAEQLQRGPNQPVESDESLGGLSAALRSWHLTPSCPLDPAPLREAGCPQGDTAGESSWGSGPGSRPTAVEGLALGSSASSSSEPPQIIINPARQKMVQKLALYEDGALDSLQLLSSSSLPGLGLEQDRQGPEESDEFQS

[3] = tested on: MDSL, THP1, OCIAML3, AML(1714), and AML(1294) cells; assay: Annexin V staining (apoptosis); format: cell-based, human; conditions: 500 nM, 48 hours
[4] = Microsomal stability (Mic t½), rat; format: in vitro ADME
[5] = tested on: NF-kB activity upon TLR2 stimulation with PAM3CSK4 in THP1-Blue NF-kB SEAP reporter cells; assay: THP1-Blue NF-kB SEAP reporter assay, TLR2 stimulation with PAM3CSK4; format: cell-based, human
[6] = Plasma protein binding, mouse; format: in vitro ADME
[7] = Microsomal stability (Mic t½), human; format: in vitro ADME
[8] = tested on: healthy donor CD34+ cells; assay: Myeloid and erythroid colony formation of healthy donor cells; format: cell-based, human; conditions: same concentrations as in the leukemic colony assay
[9] = Microsomal stability (Mic t½), mouse; format: in vitro ADME
[10] = tested on: THP1 cells; format: cell-based, human; conditions: AML cells versus vehicle
[11] = Solubility; format: physicochemical
[12] = tested on: NF-kB activity upon IL-1β stimulation (IL-1R) in THP1 NF-kB reporter cells; assay: THP1 NF-kB reporter assay, IL-1β stimulation; format: cell-based, human; conditions: THP1 NF-kB reporter cells
[13] = target: T2, IRAK1; assay: DiscoverX KINOMEscan Profiling Service, dissociation constant; format: binding
[14] = target: T1, IRAK4; assay: as above; format: binding
[15] = PAMPA; format: in vitro ADME
[16] = Pharmacokinetic analysis, drug concentration after PO dosing; conditions: PO 100 mg/kg
[17] = tested on: MDS/AML cell lines and patient-derived samples; assay: Clonogenic assay (colony formation in methylcellulose); format: cell-based, human
[18] = Plasma protein binding, human; format: in vitro ADME
[19] = tested on: IRAK1 phosphorylation in MDS/AML cells; assay: Immunoblotting for phospho-IRAK1; format: cell-based, human; conditions: THP1 and MDSL cells, 500 nM, 24 hours
[20] = tested on: MDS/AML cell lines and patient-derived samples; assay: Differentiation: Wright-Giemsa stains and CD38 immunophenotyping; format: cell-based, human
[21] = tested on: AML(1714) cells; assay: Xenograft of AML(1714) cells pre-treated in vitro for 21 days; format: in vivo; conditions: AML(1714) pre-treated 500 nM 21 days, xenografted NSGS mice
[22] = tested on: AML(64519), AML(0169), and MDS(76960) cells; assay: Patient-derived AML/MDS xenografts treated orally; format: in vivo, NSGS mice; conditions: PO daily, Compound 14 30 mg/kg or Compound 15 100 mg/kg

CC1(c2ccc3ncc(-c4cccc(N[C@@H]5CCNC5)n4)n3c2)CC1 [Compound 15]
IC50 [1]: 0.9 nM | IRAK4:IRAK1 potency ratio ([2]; calculated from the IRAK1 and IRAK4 IC50): 36 | IC50 ([2]; functional biochemical assay, read-out: IRAK1 IC50): 32 nM | Apoptosis (Annexin V staining) [3]: more effective than Compound 14 at mediating apoptosis | Tier 1 Mic t½ (r) [4]: >30 min | Tier 2 Mic t½ (r) [4]: 68 min | IC50 ([5]; THP1 NF-kB reporter cells, read-out: IC50 vs. Pam3CSK4 (TLR2-mediated NF-kB activation)): 6.3 nM and 4.5 nM | Suppression of TLR2-mediated activation of NF-kB ([5]; at 100 nM, THP1 cells): completely suppressed | Plasma Prot Bind (% free - ms) [6]: 6.85 % free | Tier 2 Mic t½ (h) [7]: 1.7 h | Erythroid colony formation of healthy donor CD34+ cells [8]: increased erythroid colony formation | Myeloid cell colonies of healthy donor CD34+ cells [8]: only modesty inhibited | Tier 2 Mic t½ (m) [9]: 29 min | Genes of the IRAK1/4 AML signature suppressed [10]: ~65% | Solubility [11]: 31 mg/mL (≈ 93 mM) | IC50 ([12]; read-out: IC50 vs. IL-1β (NF-kB activation)): 9.3 nM | Suppression of NF-kB signaling through the IL-1 receptor ([12]; result in words): completely suppress | Kd [13]: 2.2 nM | Kd [14]: 0.2 nM | PAMPA [15]: 495 10^−6 cm/s | Mean Free Drug Concentration ([16]; 0.25 h): 263 nM | Mean Total Drug Concentration ([16]; 0.25 h): 3845 nM | Mean Free Drug Concentration ([16]; 0.5 h): 258 nM | Mean Total Drug Concentration ([16]; 0.5 h): 3764 nM | Mean Free Drug Concentration ([16]; 1 h): 207 nM | Mean Total Drug Concentration ([16]; 1 h): 3018 nM | Mean Free Drug Concentration ([16]; 2 h): 139 nM | Mean Total Drug Concentration ([16]; 2 h): 2034 nM | Mean Free Drug Concentration ([16]; 4 h): 109 nM | Mean Total Drug Concentration ([16]; 4 h): 1594 nM | Mean Free Drug Concentration ([16]; 8 h): 50 nM | Mean Total Drug Concentration ([16]; 8 h): 726 nM | Mean Free Drug Concentration ([16]; 24 h): 1 nM | Mean Total Drug Concentration ([16]; 24 h): 9 nM | Colony formation after in vitro exposure ([17]; AML(1714) cells, 500 nM for 21 days, then 250 live cells plated, 10 days): significantly diminished colony formation | Suppression of leukemia progenitor cell colony formation ([17]; MDS/AML cell lines and patient-derived samples, 250 nM or 1 μM, complete in all samples except THP1): complete suppression of leukemia progenitor cell colony formation | Plasma Prot Bind (% free - h) [18]: 2.46 % free | Phosphorylation of IRAK1 [19]: inhibited auto-phosphorylation of IRAK1 | Morphology (Wright-Giemsa staining) ([20]; 500 nM, 12 days): heterogeneous morphologies and size and increased cytoplasmic to nuclear ratios | Expression of CD38 ([20]; 12 days of treatment, versus Compound 14 or vehicle): greater expression of CD38 | Leukemic engraftment and AML development of pre-treated cells [21]: complete loss of leukemic engraftment and AML development | Median survival ([22]; NSGS mice engrafted with AML(0169), vehicle 29 days): 40 days | Leukemic cell engraftment in the PB ([22]; AML(64519), AML(0169), MDS(76960) at day 40, 29, 48, versus vehicle): significantly reduced
